# Laboratory results taken from patent US20070167419A1, “TREATMENT FOR EMBOLIC STROKE” (priority 2005, published 2007).
# Entries after “also recorded” stand apart in the source; their conditions may differ.
# What was measured:
# Format in all cases: in vivo
# [1] = test system: small clot embolic strokes in rabbits; assay: rabbit small clot embolic stroke model (RSCEM), quantal analysis of behavior
# Source text: The invention used a rabbit small clot embolic stroke model (RSCEM) that reproduces many facets of human AIS including a well-defined clinical endpoint. The RSCEM utilizes administration of a suspension of small blood clots to induce strokes, and behavioral deficits that can be measured quantitatively. Moreover, the RSCEM is useful to conduct studies testing the effects of single drugs or drug combinations such as a neuroprotective agent (e.g., NXY-059) plus a thrombolytic (Tenecteplase, Alteplase, Desmoteplase and the like). Since it is likely that a drug combination will be used for patient management it is important to determine whether there are any interactions (positive or negative) between the compounds when administered following embolic strokes.
# Methods: Male New Zealand white rabbits were anesthetized using halothane (5% induction, 2% maintenance by facemask), the bifurcation of the right carotid artery was exposed and the external carotid was ligated just distal to the bifurcation, where a catheter was inserted into the common carotid and secured with ligatures. The incision was closed around the catheter with the distal ends left accessible outside the neck; the catheter was filled with heparinized saline and plugged with an injection cap. Rabbits were allowed to recover from anesthesia for a minimum of 3 h until they awoke and behaved normally.
# For the RSCEM, microclots were prepared from blood drawn from a donor rabbit and allowed to clot at 37° C. All rabbits in the study received injections of the same sized microclots. For embolization, clot particles were rapidly injected through the carotid catheter and both the syringe and catheter were flushed with 5 ml of normal saline.
# Treatment Regimens: (A) Dose-Response Curve: NXY-059 was administered IV at a dose of 0.1-100 mg/kg infused over 30 min beginning 1 hour following embolization. (B) Therapeutic Window: NXY-059 (100 mg/kg) was given beginning 1, 3 or 6 hours following embolization. (C) Tenecteplase Dosing: Tenecteplase was administered IV at a dose of 0.9 mg/kg as a bolus injection given over one minute was administered 1 or 6 hours following embolization. (D) Combination studies: NXY-059 was administered IV at a dose of 100 mg/kg infused over 30 min and Tenecteplase was administered IV at a dose of 0.9 mg/kg beginning 1 or 6 hours following embolization.
# Quantal Dose-Response Analysis: For the RSCEM, a quantal dose-response data analysis technique was used. A wide range of lesion volumes is induced to generate both normal and abnormal animals. Using 3 or more different doses of microclots generated each quantal analysis curve. […] Each animal is rated as either normal or abnormal (including dead animals), and inter-rater variability is very low (<5%). […] With this simple rating system, the composite result for a group of animals is quite reproducible. The P50 values are then calculated. These parameters are measures of the amount of microclots (in mg) that produce neurologic dysfunction in 50% of a group of animals. A separate curve is generated for each treatment condition that was tested. The data were analyzed using the t-test, which included the Bonferroni correction where appropriate.
# Using the RSCEM model as described above male New Zealand white rabbits weighing 2.2-2.6 Kg were anesthetized and a catheter was inserted into the common carotid artery through which microclots were injected. Briefly, the bifurcation of one carotid artery was exposed and the external carotid was ligated just distal to the bifurcation. A catheter was inserted into the common carotid and secured with ligatures. The incision was closed around the catheter so that the distal end was accessible outside the animal's neck. The catheter was then filled with heparinized saline and plugged with an injection cap. Rabbits were allowed to recover from anesthesia until they were awake and behaving normally. […]
# [2] = test system: spinal cord ischemia induced by temporary occlusion of the infrarenal aorta; assay: rabbit reversible spinal cord ischemia model (RSCIM)
# Method: In a rabbit reversible spinal cord ischemia model (RSCIM). ABHS was administered (25 mg/kg) intravenously (i.v.) 5 or 30 min following the start of occlusion to groups of rabbits exposed to ischemia induced by temporary occlusion of the infrarenal aorta. The group P50 represents the duration of ischemia (min) associated with a 50% probability of resultant permanent paraplegia.
# [3] = test system: small clot embolic strokes in rabbits; assay: rabbit small clot embolic stroke model (RSCEM), quantal analysis of behavior; conditions: for Observation: ABHS 25 mg/kg IV; for Abnorm / Norm: ABHS 25 mg/kg, 5 min
# [4] = ABHS 25 mg/kg, 5 min, clot dose 0.38 mg
molecule,measurement,setting,value
"CC(=O)[C@H]1CC[C@H]2[C@@H]3CC[C@@H]4C[C@H](OC(=O)CCC(=O)O)CC[C@]4(C)[C@H]3CC[C@]12C [ABHS, 3-alpha-ol-5-beta-pregnan-20-one hemisuccinate]",Observation,"[1]; ABHS 25 mg/kg IV, 60 min following embolization",Sedation
same,Abnorm (rabbits rated behaviorally abnormal),[1]; [4],0
same,Norm (rabbits rated behaviorally normal),[1]; [4],1
same,Abnorm,"[1]; ABHS 25 mg/kg, 5 min, clot dose 1.99 mg",1
same,Abnorm,"[1]; ABHS 25 mg/kg, 5 min, clot dose 2.21 mg",1
same,Norm,"[1]; ABHS 25 mg/kg, 5 min, clot dose 2.97 mg",1
same,Abnorm,"[1]; ABHS 25 mg/kg, 5 min, clot dose 4.35 mg",1
same,effect on therapeutic window of tPA,[1]; FIG. 7,increases the therapeutic window for tPA
same,effect on tolerance to ischemia,[2]; ABHS administered 30 min following the start of occlusion,increased the tolerance to ischemia
same,persistence of effect,[2]; ABHS injected 5 min following the start of ischemia and again 24 h after ischemia,persistent effect of the drug at 48 h
same,Observation,[3]; 5 min following embolization,Sedation
same,Observation,[3]; 180 min following embolization,Sedation
same,Abnorm,[3]; clot dose 0.53 mg,0
same,Norm,[3]; clot dose 0.53 mg,1
same,Abnorm,[3]; clot dose 1.42 mg,0
same,Norm,[3]; clot dose 1.42 mg,1
same,Abnorm,[3]; clot dose 1.60 mg,0
same,Norm,[3]; clot dose 1.60 mg,1
same,Abnorm,[3]; clot dose 1.72 mg,0
same,Norm,[3]; clot dose 1.72 mg,1
same,Norm,[3]; clot dose 1.99 mg,0
same,Norm,[3]; clot dose 2.21 mg,0
same,Abnorm,[3]; clot dose 2.31 mg,0
same,Norm,[3]; clot dose 2.31 mg,1
same,Abnorm,[3]; clot dose 2.89 mg,1
same,Norm,[3]; clot dose 2.89 mg,0
same,Abnorm,[3]; clot dose 2.97 mg,0
same,Abnorm,[3]; clot dose 3.38 mg,1
same,Norm,[3]; clot dose 3.38 mg,0
same,Abnorm,[3]; clot dose 3.88 mg,1
same,Norm,[3]; clot dose 3.88 mg,0
same,Norm,[3]; clot dose 4.35 mg,0
same,Abnorm,[3]; clot dose 4.67 mg,0
same,Norm,[3]; clot dose 4.67 mg,1
"CC(C)(C)[N+]([O-])=Cc1ccc(S(=O)(=O)O)cc1S(=O)(=O)O.[Na].[Na] [NXY-059, disodium 2,4-disulfophenyl-N-tert-butylnitrone]",P50,"[1]; NXY-059 100 mg/kg, 6 hours following embolization, not significant vs vehicle",1.35 ± 0.37 mg
same,effect on P50 vs vehicle,"[1]; NXY-059 doses from 1-100 mg/kg, 1 hour following embolization, p<0.05",significantly increased the P50
same,effect on P50 vs vehicle,"[1]; NXY-059 lower dose (0.10 mg/kg), 1 hour following embolization, p>0.05",did not
CC12CC3CC(C)(C1)CC(N)(C3)C2 [memantine],effect on efficacy of low-dose tPA,[1]; FIG. 8,increases the efficacy of low-dose tPA
Tenecteplase,P50,"[1]; Tenecteplase 0.9 mg/kg IV bolus, 1 hour following embolization, 24 hours",2.76 ± 0.37 mg
same,increase of P50 over control,"[1]; Tenecteplase 0.9 mg/kg, 1 hour following embolization",130%
same,effect on P50 vs control,"[1]; Tenecteplase 0.9 mg/kg, 6 hours following embolization","did not increase the P50 compared to control; also recorded: neither Tenecteplase, nor NXY-059, significantly (p>0.05) affect P50 values"
